According to patent publication US8314110B2, “Compounds for treating mental disorders, and preparation and uses thereof” (priority 2007, dated 2012):

Legend:
[1] = oral administration; cited from earlier work
[2] = Absolute bioavailability, beagle tests of the compound [formula (II)] and its prodrugs; assay type: in vivo; conditions: iv, dosage equimolar to the prodrug, compound [formula (II)] in blood
Protocol: Measurement of the Absolute Bioavailability—Beagle Tests of the Compound [Formula (II)] and its Prodrugs, the Compounds 1, 2, 3, 5, 6, 7 and 8
Twenty one beagles weighing about 10 kg were divided into 7 groups, and intragastrically administered the compounds 1, 2, 3, 5, 6, 7 and 8 at a dosage of 9.4 μmol/beagle, respectively. Blood samples were taken at the predetermined time points, and the concentrations of the active metabolite (the compound [formula (II)]) and prodrugs in blood were measured. In the meantime, three beagles weighing about 10 kg were intravenously administered with the compound [formula (II)] at a dosage equimolar to the prodrug, as the control group, and the concentrations of the compound [formula (II)] in blood were measured.
The prodrugs were immediately metabolized almost completely to form the active metabolite in beagle body, the compound [formula (II)] upon being administrated parenterally, and the concentrations of the original compounds were very low (see: FIG. 1C).

[3] = Metabolism of the compounds to the active component (compound [formula (II)]) in liver cells; conditions: human liver cells S9, 1 mM NADPH, 37° C., 2 hours; metabolized to the compound [formula (II)]
Source text: After the precipitated proteins were removed by centrifugation, the obtained supernatant solution was adjusted to pH of 3 with concentrated potassium phosphate solution, and centrifuged again. The obtained supernatant was directly injected into HPLC for analysis.

[4] = Dissolution of oral sustained-release capsules; assay type: physicochemical
Protocol: Granules were obtained by using conventional fluidized bed.
After the coating was dried, the coated granules were filled into hard gelatin capsules, each capsule contain 6 mg of the active ingredient (expressed in the compound [formula (II)]), and the coating degree was 6%. The capsules were subjected to dissolution tests according the method specified in the Pharmacopoeia of the People's Republic of China.

[5] = Dissolution of the oral conventional tablets; assay type: physicochemical
Protocol: Tablets were obtained by direct tabletting, and each tablet contained 6 mg of active ingredient (expressed in the compound [formula (II)]).

Row | SMILES | Metabolic rate (%) [3] [%] | Dissolution percentage of the active ingredient ([4]; dissolution time 2 hours) [%] | Dissolution percentage of the active ingredient ([4]; dissolution time 4 hours) [%] | Dissolution percentage of the active ingredient ([4]; dissolution time 8 hours) [%] | Dissolution percentage of the active ingredient ([4]; dissolution time 12 hours) [%] | Dissolution percentage of the active ingredient ([4]; dissolution time 24 hours) [%] | Dissolution percentage of the active ingredient ([5]; dissolution time 2 hours) [%] | Dissolution percentage of the active ingredient ([5]; dissolution time 4 hours) [%] | Dissolution percentage of the active ingredient ([5]; dissolution time 8 hours) [%] | also measured
1 | Cc1nc2n(c(=O)c1CCN1CCC(c3noc4cc(F)ccc34)CC1)CCCC2O (stereo not drawn) [9-hydroxy risperidone, 3-{2-[4-(6-fluoro-benzo[d]isoxazol-3-yl)piperidin-1-yl]-ethyl}-9-hydroxy-2-methyl-6,7,8,9-tetrahydro-pyrido[1,2-α]pyrimidin-4-one] |  |  |  |  |  |  |  |  |  | absolute bioavailability [1]: 28%; Cmax ([2]; beagle, dog, 9.4 μmol/beagle): 360 ng/mL; half-life ([2]; beagle, dog, 9.4 μmol/beagle): 2.51 h; AUC [2]: 2422 nghr/ml
2 | Cc1nc2n(c(=O)c1CCN1CCC(c3noc4cc(F)ccc34)CC1)CCCC2OC(=O)c1ccccc1 (stereo not drawn) [Compound 1, 3-{2-[4-(6-fluoro-1,2-benzoisoxazol-3-yl)-1-piperidinyl]-ethyl}-2-methyl-4-oxo-6,7,8,9-tetrahydro-pyrido[1,2-α]pyrimidin-9-yl benzoate] | 89 | 8.9 | 26 | 60 | 76 | 94 | 35 | 67 | 92 | 
3 | Cc1ccc(C(=O)OC2CCCn3c2nc(C)c(CCN2CCC(c4noc5cc(F)ccc45)CC2)c3=O)cc1 (stereo not drawn) [Compound 2, 3-{2-[4-(6-fluoro-1,2-benzoisoxazol-3-yl)-1-piperidinyl]ethyl}-2-methyl-4-oxo-6,7,8,9-tetrahydro-pyrido[1,2-α]pyrimidin-9-yl 4-methylbenzoate] | 78 |  |  |  |  |  |  |  |  | 
4 | CCOC(=O)OC1CCCn2c1nc(C)c(CCN1CCC(c3noc4cc(F)ccc34)CC1)c2=O.Cl (stereo not drawn) [Compound 5, 3-{2-[4-(6-fluoro-1,2-benzoisoxazol-3-yl)-1-piperidinyl]ethyl}-2-methyl-4-oxo-6,7,8,9-tetrahydro-pyrido[1,2-α]pyrimidin-9-yl ethyl carbonate hydrochloride] | 95 |  |  |  |  |  |  |  |  | 
5 | Cc1nc2n(c(=O)c1CCN1CCC(c3noc4cc(F)ccc34)CC1)CCCC2OC(=O)OCC(C)C.Cl.Cl (stereo not drawn) [Compound 6, 3-{2-[4-(6-fluoro-1,2-benzoisoxazol-3-yl)-1-piperidinyl]ethyl}-2-methyl-4-oxo-6,7,8,9-tetrahydro-pyrido[1,2-α]pyrimidin-9-yl isobutyl carbonate dihydrochloride] | 92 | 8.8 | 19 | 42 | 68 | 89 | 43 | 79 | 98 | 
6 | CCCCCOC(=O)OC1CCCn2c1nc(C)c(CCN1CCC(c3noc4cc(F)ccc34)CC1)c2=O.Cl.Cl (stereo not drawn) [Compound 7, 3-{2-[4-(6-fluoro-1,2-benzoisoxazol-3-yl)-1-piperidinyl]ethyl}-2-methyl-4-oxo-6,7,8,9-tetrahydro-pyrido[1,2-α]pyrimidin-9-yl n-pentyl carbonate dihydrochloride] | 93 | 5.3 | 22 | 41 | 59 | 82 | 45 | 76 | 93 | 
7 | Cc1nc2n(c(=O)c1CCN1CCC(c3noc4cc(F)ccc34)CC1)CCCC2OC(=O)Oc1ccccc1.Cl (stereo not drawn) [Compound 8, 3-{2-[4-(6-fluoro-1,2-benzoisoxazol-3-yl)-1-piperidinyl]ethyl}-2-methyl-4-oxo-6,7,8,9-tetrahydro-pyrido[1,2-α]pyrimidin-9-yl phenyl carbonate hydrochloride] | 94 |  |  |  |  |  |  |  |  | 
8 | Cc1nc2n(c(=O)c1CCN1CCC(c3noc4cc(F)ccc34)CC1)CCCC2OC(=O)Oc1ccc([N+](=O)[O-])cc1.Cl (stereo not drawn) [Compound 9, 3-{2-[4-(6-fluoro-1,2-benzoisoxazol-3-yl)-1-piperidinyl]ethyl}-2-methyl-4-oxo-6,7,8,9-tetrahydro-pyrido[1,2-α]pyrimidin-9-yl p-nitrophenyl carbonate hydrochloride] | 89 |  |  |  |  |  |  |  |  | 
9 | Cc1nc2n(c(=O)c1CCN1CCC(c3noc4cc(F)ccc34)CC1)CCCC2 [Risperidone] |  |  |  |  |  |  |  |  |  | absolute bioavailability [1]: at least 70%
